Data on 1 compound can be found in patent US11883407B2, “Medicament for the treatment of chronic cough” (Shionogi & Co., Ltd., priority 2018, dated 2024).

In this test the target is T1, human P2X2/3 receptor (Homo sapiens, UniProt P56373+Q9UBL9).
T1 sequence (Q9UBL9 1-471): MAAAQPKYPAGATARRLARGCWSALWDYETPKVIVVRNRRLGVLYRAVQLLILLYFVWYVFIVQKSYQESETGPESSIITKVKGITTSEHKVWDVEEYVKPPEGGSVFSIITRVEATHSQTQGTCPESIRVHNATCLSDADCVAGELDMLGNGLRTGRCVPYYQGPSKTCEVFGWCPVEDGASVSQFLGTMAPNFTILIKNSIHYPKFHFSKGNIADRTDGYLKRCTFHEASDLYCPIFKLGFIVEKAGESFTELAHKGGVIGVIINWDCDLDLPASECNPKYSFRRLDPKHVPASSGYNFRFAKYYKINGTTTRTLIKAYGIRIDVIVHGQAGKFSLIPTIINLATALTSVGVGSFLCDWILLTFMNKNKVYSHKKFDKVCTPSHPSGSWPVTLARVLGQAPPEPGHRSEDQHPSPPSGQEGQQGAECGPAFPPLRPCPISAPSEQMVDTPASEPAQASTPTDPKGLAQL
T1 sequence (P56373 1-397): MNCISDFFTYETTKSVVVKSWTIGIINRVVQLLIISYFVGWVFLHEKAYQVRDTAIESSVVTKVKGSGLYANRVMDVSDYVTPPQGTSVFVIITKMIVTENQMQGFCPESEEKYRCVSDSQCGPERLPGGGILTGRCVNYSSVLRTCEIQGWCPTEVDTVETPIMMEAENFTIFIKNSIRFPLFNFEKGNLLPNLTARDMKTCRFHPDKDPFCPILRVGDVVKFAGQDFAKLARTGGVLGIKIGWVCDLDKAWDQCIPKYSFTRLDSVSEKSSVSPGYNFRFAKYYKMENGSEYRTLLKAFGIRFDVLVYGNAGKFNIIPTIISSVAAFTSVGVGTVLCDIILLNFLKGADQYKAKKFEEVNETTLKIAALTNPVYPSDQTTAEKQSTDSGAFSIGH
The experiment in a line: Evaluation of human P2X2/3 receptor inhibitory activity (Fluo-3 fluorescence, C6BU-1 cells, α,β-methylene ATP 6 μM).

In general, IC50 refers to the point on the concentration scale where inhibition reaches its midpoint. A lower IC50 goes with higher potency. Turning to `C[C@@H](Cn1c(=O)[nH]/c(=N\c2ccc(Oc3ccccn3)cc2)n(Cc2ccc(Cl)cc2)c1=O)C(=O)O` [compound represented by Formula (I), (2S)-3-(3-[(4-Chlorophenyl)methyl]-2,6-dioxo-4-{[4-(pyridin-2-yloxy)phenyl]amino}-3,6-dihydro-1,3,5-triazin-1(2H)-yl)-2-methyl-propanoic acid], the IC50 is 1100 nM.
